Laboratory results: US20180064662A1 (THE GENERAL HOSPITAL CORPORATION, priority 2015, published 2018)

Legend:
[1] = tested on: RAW 264.7 (mouse leukemic monocyte-macrophages); assay: RAW 264.7 macrophages treated with metformin in vitro (qPCR, Western blot); assay type: cell-based
Protocol: Following treatment, cells were collected for RNA and protein extraction in order to perform subsequent analysis of gene expression of cytokines and polarization markers, and for analysis of signaling and metabolic pathways. […] Cells were collected for protein extraction for analysis of the activation of fibrosis-related pathways. […] The cells were fixed with 4% paraformaldehyde and blocked with 5% normal donkey serum for 1 h. They were incubated with the designated primary antibodies overnight at 4° C. then for 2 h with the appropriate secondary antibodies at RT. PBS was used for all washes and the stained samples were mounted with Prolong Gold with DAPI. Images were acquired using a confocal microscope. The antibodies used and image acquisition settings are described below. Both cell types were grown in Dulbecco's modified Eagle's medium (Sigma, St. Louis, Mo.) supplemented with 5% (v/v) heat inactivated fetal bovine serum (FBS; Sigma), 100 units/ml penicillin and streptomycin. Cells were cultured at 37° C. in a humidified atmosphere including 5% CO2.
Immediately following excision, tumor tissue was snap frozen and stored in liquid nitrogen. Total RNA was extracted and relative gene expression for macrophage M1/M2 markers was determined using a Sybr-green based standard protocol. In addition, total RNA was extracted and relative gene expression was determined using RT2 Profiler PCR Arrays system (Qiagen) on a Stratagene Mx3000P QPCR System using pre-made pathway-focused arrays (“Fibrosis”-Cat. Number: PAMM011Z; “Epithelial to Mesenchymal Transition (EMT)”-Cat. Number: PAMM090Z; “TGF-β signaling targets”-PAMM235Z; “Extracellular Matrix & Adhesion Molecules”-Cat. Number: PAMM013Z; and “Common cytokines ”-Cat. Number: PAMM021Z).
Each tumor sample was homogenized directly in lysis buffer for protein extraction. 20 ug of denatured protein per sample was loaded on 7%, 10% and 12% SDS-polyacrylamide gels. Antibodies used: phospho-p38 MAPKT^180/Y182 and p38; phospho-JNK (SAPK/JNK)^Thr183/Tyr185 and JNK; phospho-AKT^Ser473 and AKT, phospho-ERK(p44/42 MAPK)^T202/Y204 and ERK; phospho-NF-κB^Ser536 and NK-κB; p65^Ser536; phospho-Smad2^Ser465/467 and Smad2; phospho-IGF-I Receptor β^Tyr1135 and IGF; Phospho-IRS-1^Ser612 and IRS; IR; phpspho-stat3^Tyr705 and stat3; Phospho-AMPKα^Thr172 and Ampkα; phospho-Ampkβ^Ser108 and Ampk; phospho-ACC^Ser79 and ACC; Phospho-PDGF Receptor β^Tyr751 and PDGF Receptor β and snail, c-cadherin and vimentin, TGF-β, β-catenin, twist, LC3B. […] Quantification of protein expression relative to total receptor or β-actin was obtained using Image J software.

pancreatic cancer = conditions: newly diagnosed pancreatic cancer cases, diabetic patients; cited from earlier work
[2] = patients with type 2 diabetes taking this drug; cited from earlier work

## CN(C)C(=N)N=C(N)N [metformin, 3-(diaminomethylidene)-1,1-dimethylguanidine]
[1]; ACC evident only in serum added media
  activation of AMPKα and ACC in macrophages: activation of AMPKα
[1]; concentrations lower than 0.2 mM, Western blot
  activation of STAT3, JNK, AKT and p38 in macrophages: reduced activation
[1]; metformin 0.05 mM, 48 h
  gene expression of M2 markers such as Arg-1 and IL-10: reduced M2 markers
[1]; metformin at doses higher than 0.2 mM
  gene expression of M1 and M2 markers: reduced both M1 and M2 markers
Pancreatic cancer
  reduced risk of death: 32%
[2]
  approximate plasma concentration of metformin: ~0.05 mM
